Laboratory results: patent publication US8476302B2, “α-ketoamide derivatives useful endothelial lipase inhibitors” (Janssen Pharmaceutica N.V., priority 2010, dated 2013)

Columns and labels:
Mouse EL = biological target: T1, Mouse EL (Mus musculus, UniProt Q9WVG5); test: Endothelial Lipase Assay, cell surface lipase activity (mouse); type: cell-based; settings: PLA1 substrate 10 μM, fluorescence reaction rate, several values in a cell are repeat determinations
T1 construct: host or cells: not described for mouse EL
T1 sequence (Q9WVG5 21-500): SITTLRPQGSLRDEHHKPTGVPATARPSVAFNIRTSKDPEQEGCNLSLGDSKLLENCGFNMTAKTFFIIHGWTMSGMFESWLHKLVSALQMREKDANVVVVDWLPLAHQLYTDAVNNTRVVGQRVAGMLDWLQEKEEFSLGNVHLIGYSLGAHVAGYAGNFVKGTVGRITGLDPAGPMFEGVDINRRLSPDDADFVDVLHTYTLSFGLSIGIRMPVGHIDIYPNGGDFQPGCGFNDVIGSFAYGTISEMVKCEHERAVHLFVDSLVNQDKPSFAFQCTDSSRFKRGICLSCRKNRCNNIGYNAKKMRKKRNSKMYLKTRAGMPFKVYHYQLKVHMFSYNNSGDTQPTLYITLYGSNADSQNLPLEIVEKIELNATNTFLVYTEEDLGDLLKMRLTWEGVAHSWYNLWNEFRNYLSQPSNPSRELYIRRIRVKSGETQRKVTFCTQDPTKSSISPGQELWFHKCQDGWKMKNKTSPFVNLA
In short: (§1)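 Cells expressing human or mouse EL, plated 2000 cells/well in serum-free medium for 18-24 h at 37° C, then given PLA1 substrate (10 μM final) in HBSS/25 mM HEPES pH 7.2. Fluorescence (ex 490/em 515 nm) read kinetically for 30 min at 37° C; IC50 from slopes of linear regression over 480-1500 s.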

[1] = biological target: T2, human endothelial lipase (EL) (Homo sapiens, UniProt Q9Y5X9); test: Endothelial Lipase Assay, cell surface lipase activity (human); type: cell-based; settings: cells expressing human EL, PLA1 substrate 10 μM, fluorescence reaction rate; several values in a cell are repeat determinations
T2 construct: host or cells: cells expressing human endothelial lipase
T2 sequence (Q9Y5X9 21-500): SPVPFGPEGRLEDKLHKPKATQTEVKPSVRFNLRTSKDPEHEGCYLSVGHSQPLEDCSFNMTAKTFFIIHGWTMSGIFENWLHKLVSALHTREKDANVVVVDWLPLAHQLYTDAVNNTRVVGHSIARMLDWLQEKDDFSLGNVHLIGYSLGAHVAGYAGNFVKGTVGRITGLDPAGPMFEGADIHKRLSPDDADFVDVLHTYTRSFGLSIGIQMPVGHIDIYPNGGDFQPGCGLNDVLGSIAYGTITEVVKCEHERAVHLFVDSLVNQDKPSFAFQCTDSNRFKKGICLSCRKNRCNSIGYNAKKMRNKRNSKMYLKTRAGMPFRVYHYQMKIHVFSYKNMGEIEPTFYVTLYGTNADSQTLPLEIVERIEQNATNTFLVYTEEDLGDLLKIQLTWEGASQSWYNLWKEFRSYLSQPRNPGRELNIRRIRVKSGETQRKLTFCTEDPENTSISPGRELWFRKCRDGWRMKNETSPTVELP
In short: as §1

## O=C(CCCCCCc1ccccc1)C(=O)NCc1nnc(-c2ccc(OCc3cccc(F)n3)cc2)s1 [Compound 151]
Mouse EL
  IC50: 661 nM
[1]
  IC50: 712 nM

## N#Cc1cccc(COc2ccc(-c3nnc(CNC(=O)C(=O)CCCCCCc4ccccc4)s3)cc2)n1 [Compound 163]
Mouse EL
  IC50: 236 nM
[1]
  IC50: 974 nM

## O=C(CCCCCCc1ccccc1)C(=O)NCc1nnc(-c2ccc(OCc3ccccc3)cc2)o1 [Compound 68]
Mouse EL
  IC50: 124 nM
[1]
  IC50: 142 nM
